Laboratory results taken from patent publication US20240092829A1, “PEPTIDE HAVING PROTECTIVE ACTIVITY AGAINST CELL DAMAGE CAUSED BY PARTICULATE MATTER, AND USES FOR SAME” (CAREGEN CO., LTD., priority 2020, published 2024).
Peptide text beside a SMILES is read from it.

How the values were obtained:
[1] = system: cytochrome P450; test: Cytochrome P450 activity in HaCaT cells (P450-Glo Assay kit); assay type: cell-based; details: HaCaT human keratinocytes; peptide pretreatment 1 hour at 20, 100, 200 μM; then 50 μg/cm^2 urban particulate matter 24 hours; FIG. 3
Source text: When polyaromatic hydrocarbons (PAHs) present in particulate matter penetrate into cells and bind to AHR, it promotes nuclear translocation of AHR. It is known that the AHR translocated into the nucleus forms a complex AHR/ARNT with an AHR nuclear translocator (ARNT), and this complex act as a transcription factor to promote the expression of cytochrome P450 (CYPs). In order to confirm the effect of the synthesized peptide in inhibiting cell damage caused by particulate matter, an experiment was performed for confirming whether the peptide inhibits the activity of cytochrome P450 after the cells were treated with particulate matter.
(§1) First, HaCaT cells, which are human keratinocytes, were seeded into a 96-well plate at a density of 1×10^4 cells/well. After overnight incubation, the media were replaced with serum-free media. The keratinocytes, HaCaT were pretreated with the synthesized peptides for 1 hour at each concentration (20 μM, 100 μM, and 200 μM). Then, the cells were treated with 50 μg/cm^2 of urban particulate matter (Sigma, NIST1648A) for 24 hours. After the keratinocytes were collected, the activity of cytochrome P450 was measured using P450-Glo™ Assay kit (Promega).

[2] = system: cytochrome P450; test: Cytochrome P450 activity in A549 cells (P450-Glo Assay kit); assay type: cell-based; details: A549 human alveolar epithelial cells; peptide pretreatment 1 hour at 20, 100, 200 μM; then 50 μg/cm^2 urban particulate matter 24 hours; FIG. 4
Experimental: In addition, in order to confirm whether the peptide of the present invention can suppress respiratory damage caused by particulate matter, an experiment for measuring the activity of cytochrome P450 was also performed on A549 cells, which are human alveolar epithelial cells.
as §1, with “human alveolar epithelial” for “HaCaT”, “A549 cells” for “which are human keratinocytes,”, “1.2×10^4” for “1×10^4”, “alveolar epithelial cells, A549 cells” for “keratinocytes, HaCaT”, “treated cells” for “keratinocytes”

SMILES: CSCC[C@H](NC(=O)[C@H](Cc1ccc(O)cc1)NC(=O)[C@@H](N)Cc1c[nH]c2ccccc12)C(=O)O [SEQ ID NO: 1, Trp Tyr Met] (H-Trp-Tyr-Met-OH; N-terminus and C-terminus assumed)
- activity of cytochrome P450 increased by the treatment of particulate matter [1]: reduced
- activity of cytochrome P450 increased by the treatment of particulate matter [2]: reduced
